Tested on: HEK cells expressing TRPV1.459-6x-His, TRPV1.465-6x-His or untagged TRPV1
Experiment: whole cell voltage clamp in HEK cells expressing TRPV1 variants, activated by capsaicin
Type: cell-based
Conditions: TRPV1 agonist capsaicin 2.5 μM bath applied; voltage clamp −60 mV; mean±s.e.m
Text: First, they developed a system based on rat TRPV1 channels and gold nanorods with absorption maxima at 915 nm. 915 nm was selected to ensure low water absorption. […] To measure if tagged channels are functional, they performed whole cell voltage clamp in HEK cells expressing TRPV1.459-6x-His, TRPV1.465-6x-His or untagged TRPV1 while activating the channels by TRPV1 agonist capsaicin. The size of evoked currents were similar between TRPV1.465-6x-His and TRPV1 (Mann-Whitney U test, P=0.8551; TRPV1.465-6x-His, 1633±164 pA, […] 15 cells; TRPV1, 1766±276 pA, n=14 cells; mean±s.e.m), but less in TRPV1.459-6x-His (Mann-Whitney U test, P=0.0207; TRPV1.459-6x-His, 976±118 pA, n=19 cells; mean±s.e.m). Therefore, they used TRPV1.465-6x-His (rTRPV1) in subsequent experiments.
For HEK293T cell experiments, cells were maintained at 37° C. on poly-D-lysine/laminin coated coverslips (GG-12-Laminin, Neuvitro) in DMEM supplemented with 10% fetal bovine serum. Cells were transfected with plasmids containing TRP variants using branched PEI. Cells were perfused in oxygenated Ringer's medium containing 110 mM NaCl, 2.5 mM KCl, 1 mM CaCl2, 1.6 mM MgCl2, 10 mM D-glucose and 22 mM NaHCO3 at ˜36° C. for the duration of the experiment. […] Data was analyzed offline using MATLAB (MathWorks).

Substance: TRPV1: untagged rat TRPV1 channel [reference compound]
- size of evoked currents: 1766±276 pA

— patent publication US12622965B2, “Therapeutical tools and methods using temperature-sensitive receptors for treating blindness” (FRIEDRICH MIESCHER INSTITUTE FOR BIOMEDICAL RESEARCH, priority 2020, dated 2026)
